# Test results as given in patent US20100298141A1, “SUBSTITUTED PYRIDINE N-OXIDE HERBICIDES” (E. I. DU PONT DE NEMOURS AND COMPANY, priority 2007, published 2010).
# Tests used:
# common ragweed = experiment: Test C pre-/postemergence test; type: in vivo, Ambrosia elation; settings: for Plant response rating, Ragweed: scale 0 to 100, 0 no effect, 100 complete control
# In short: (§1)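 Seeds were planted and treated preemergence with test chemical in a non-phytotoxic solvent mixture containing surfactant. Postemergence applications of the same formulation went onto plants 2 to 18 cm tall (1- to 4-leaf stage). A dash marks no test result.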
# Surinam grass = experiment: Test C pre-/postemergence test; type: in vivo, Brachiaria decumbens; settings: for Surinam Grass plant response rating: preemergence, scale 0 (no effect) to 100 (complete control); for Plant response rating, Surinam Grass: scale 0 to 100, 0 no effect, 100 complete control
# In short: as §1
# velvetleaf [1] = experiment: Test A pre-/postemergence greenhouse test; type: in vivo, Abutilon theophrasti; settings: for Velvetleaf plant response rating: 0 to 100 scale
# In short: (§2)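 Pre: directed soil spray on seeded loam/sand. Post: foliar spray, plants 2–10 cm, 1–2 leaf stage, applied concurrently. Vehicle: non-phytotoxic solvent + surfactant. Greenhouse ~10 d; visual injury rating vs untreated controls.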
# giant foxtail = experiment: Test C pre-/postemergence test; type: in vivo, Setaria faberii; settings: for Plant response rating, Foxtail, Giant: scale 0 to 100, 0 no effect, 100 complete control
# In short: as §1
# green foxtail = experiment: Test C pre-/postemergence test; type: in vivo, Setaria viridis; settings: for Plant response rating, Foxtail, Green: scale 0 to 100, 0 no effect, 100 complete control
# In short: as §1
# barnyardgrass = experiment: Test A pre-/postemergence greenhouse test; type: in vivo, Echinochloa crus-galli; settings: for Barnyardgrass plant response rating: 0 to 100 scale
# In short: as §2
# velvetleaf [2] = experiment: Test C pre-/postemergence test; type: in vivo, Abutilon theophrasti; settings: Postemergence; for Plant response rating, Velvetleaf: scale 0 to 100, 0 no effect, 100 complete control
# In short: as §1
# lambsquarters = experiment: Test C pre-/postemergence test; type: in vivo, Chenopodium album; settings: for Plant response rating, Lambsquarters: scale 0 to 100, 0 no effect, 100 complete control
# In short: as §1
# cocklebur = experiment: Test C pre-/postemergence test; type: in vivo, Xanthium strumarium; settings: for Plant response rating, Cocklebur: scale 0 to 100, 0 no effect, 100 complete control
# In short: as §1
# redroot pigweed = experiment: Test A pre-/postemergence greenhouse test; type: in vivo, Amaranthus retroflexus; settings: for Pigweed plant response rating: 0 to 100 scale
# In short: as §2
# kochia = experiment: Test C pre-/postemergence test; type: in vivo, Kochia scoparia; settings: for Plant response rating, Kochia: scale 0 to 100, 0 no effect, 100 complete control
# In short: as §1
# downy brome = experiment: Test C pre-/postemergence test; type: in vivo, Bromus tectorum; settings: for Plant response rating, Bromegrass, Downy: scale 0 to 100, 0 no effect, 100 complete control
# In short: as §1
# rice = experiment: Test C flooded paddy test; type: in vivo, Oryza sativa; settings: Flood
# In short: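 Visual injury ratings against untreated controls, taken 13 to 15 days after compound was added to paddy water standing 3 cm above the soil.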
# eastern black nightshade = experiment: Test C pre-/postemergence test; type: in vivo, Solanum ptycanthum
# In short: as §1
# johnsongrass = experiment: Test C pre-/postemergence test; type: in vivo, Sorghum halepense; settings: for Plant response rating, Johnsongrass: scale 0 to 100, 0 no effect, 100 complete control
# In short: as §1
# crabgrass = experiment: Test C pre-/postemergence test; type: in vivo, Digitaria sanguinalis; settings: for Plant response rating, Crabgrass, Large: scale 0 to 100, 0 no effect, 100 complete control
# In short: as §1
# wild oat = experiment: Test C pre-/postemergence test; type: in vivo, Avena fatua; settings: for Plant response rating, Oat, Wild: scale 0 to 100, 0 no effect, 100 complete control
# In short: as §1
# [3] = 31 g ai/ha, Preemergence, scale 0 to 100
# [4] = 62 g ai/ha, preemergence, scale 0 (no effect) to 100 (complete control)
# [5] = preemergence, 125 g ai/ha, scale 0 (no effect) to 100 (complete control)
# [6] = Postemergence, 125 g ai/ha, 0 is no effect, 100 is complete control
# [7] = Postemergence, 500 g ai/ha, 0 is no effect, 100 is complete control
# [8] = Preemergence, 125 g ai/ha, 0 no effect, 100 complete control
# [9] = Preemergence, 500 g ai/ha, 0 to 100 scale where 0 is no effect and 100 is complete control
smiles,measurement,setting,value
Cc1cc[n+]([O-])c([S+]([O-])Cc2c(C(F)(F)F)nn(C)c2OC(F)F)c1 (stereo not drawn) [Compound 1],Ragweed plant response rating,common ragweed; [3],0
same,Ragweed plant response rating,common ragweed; [4],10
same,"Plant response rating (0 to 100), Ragweed","common ragweed; Postemergence, 31 g ai/ha",0
same,"Plant response rating (0 to 100), Ragweed","common ragweed; Postemergence, 62 g ai/ha",0
same,"Plant response rating, Ragweed","common ragweed; Postemergence, 125 g ai/ha",10
same,"Plant response rating, Ragweed","common ragweed; Postemergence, 250 g ai/ha",20
same,"Plant response rating (0 to 100), Ragweed","common ragweed; Preemergence, 250 g ai/ha",85
same,Ragweed plant response rating,common ragweed; [5],85
same,Surinam Grass plant response rating,Surinam grass; 62 g ai/ha,100
same,"Plant response rating (0 to 100), Surinam Grass","Surinam grass; Postemergence, 31 g ai/ha",0
same,"Plant response rating (0 to 100), Surinam Grass","Surinam grass; Postemergence, 62 g ai/ha",0
same,"Plant response rating, Surinam Grass","Surinam grass; Postemergence, 125 g ai/ha",30
same,"Plant response rating, Surinam Grass","Surinam grass; Postemergence, 250 g ai/ha",60
same,"Plant response rating (0 to 100), Surinam Grass","Surinam grass; Preemergence, 250 g ai/ha",100
same,Surinam Grass plant response rating,Surinam grass; 125 g ai/ha,100
same,Velvetleaf plant response rating,velvetleaf [1]; [6],50
same,Velvetleaf plant response rating,velvetleaf [1]; [7],70
same,Velvetleaf plant response rating,velvetleaf [1]; [8],30
same,"Plant response rating, Velvetleaf",velvetleaf [1]; [9],100
same,"Foxtail, Giant plant response rating",giant foxtail; [3],60
same,"Foxtail, Giant plant response rating",giant foxtail; [4],70
same,"Plant response rating (0 to 100), Foxtail, Giant","giant foxtail; Postemergence, 31 g ai/ha",0
same,"Plant response rating, Foxtail, Giant","giant foxtail; Postemergence, 62 g ai/ha",0
same,"Plant response rating, Foxtail, Giant","giant foxtail; Postemergence, 125 g ai/ha",45
same,"Plant response rating, Foxtail, Giant","giant foxtail; Postemergence, 250 g ai/ha",60
same,"Plant response rating (0 to 100), Foxtail, Giant","giant foxtail; Preemergence, 250 g ai/ha",100
same,"Foxtail, Giant plant response rating",giant foxtail; [5],100
same,"Foxtail, Green plant response rating",green foxtail; [3],100
same,"Foxtail, Green plant response rating",green foxtail; [4],100
same,"Plant response rating (0 to 100), Foxtail, Green","green foxtail; Postemergence, 31 g ai/ha",0
same,"Plant response rating, Foxtail, Green","green foxtail; Postemergence, 62 g ai/ha",0
same,"Plant response rating, Foxtail, Green","green foxtail; Postemergence, 125 g ai/ha",30
same,"Plant response rating, Foxtail, Green","green foxtail; Postemergence, 250 g ai/ha",60
same,"Plant response rating (0 to 100), Foxtail, Green","green foxtail; Preemergence, 250 g ai/ha",100
same,"Foxtail, Green plant response rating",green foxtail; [5],100
same,Barnyardgrass plant response rating,barnyardgrass; [6],80
same,Barnyardgrass plant response rating,barnyardgrass; [7],80
same,Barnyardgrass plant response rating,barnyardgrass; [8],90
same,"Plant response rating, Barnyardgrass",barnyardgrass; [9],100
same,"Plant response rating (0 to 100), Velvetleaf",velvetleaf [2]; 31 g ai/ha,10
same,"Plant response rating (0 to 100), Velvetleaf",velvetleaf [2]; 62 g ai/ha,40
same,"Plant response rating, Velvetleaf",velvetleaf [2]; 125 g ai/ha,45
same,"Plant response rating, Velvetleaf",velvetleaf [2]; 250 g ai/ha,60
same,Lambsquarters plant response rating,lambsquarters; [3],100
same,Lambsquarters plant response rating,lambsquarters; [4],100
same,"Plant response rating (0 to 100), Lambsquarters","lambsquarters; Postemergence, 31 g ai/ha",0
same,"Plant response rating, Lambsquarters","lambsquarters; Postemergence, 62 g ai/ha",40
same,"Plant response rating, Lambsquarters","lambsquarters; Postemergence, 125 g ai/ha",40
same,"Plant response rating, Lambsquarters","lambsquarters; Postemergence, 250 g ai/ha",70
same,"Plant response rating (0 to 100), Lambsquarters","lambsquarters; Preemergence, 250 g ai/ha",100
same,Lambsquarters plant response rating,lambsquarters; [5],100
same,Cocklebur plant response rating,cocklebur; [3],0
same,Cocklebur plant response rating,cocklebur; [4],0
same,"Plant response rating (0 to 100), Cocklebur","cocklebur; Postemergence, 31 g ai/ha",0
same,"Plant response rating, Cocklebur","cocklebur; Postemergence, 62 g ai/ha",0
same,"Plant response rating, Cocklebur","cocklebur; Postemergence, 125 g ai/ha",0
same,"Plant response rating, Cocklebur","cocklebur; Postemergence, 250 g ai/ha",0
same,"Plant response rating (0 to 100), Cocklebur","cocklebur; Preemergence, 250 g ai/ha",60
same,Cocklebur plant response rating,cocklebur; [5],0
same,Pigweed plant response rating,redroot pigweed; [6],100
same,Pigweed plant response rating,redroot pigweed; [7],100
same,Pigweed plant response rating,redroot pigweed; [8],100
same,"Plant response rating, Pigweed",redroot pigweed; [9],100
same,Kochia plant response rating,kochia; [3],100
same,Kochia plant response rating,kochia; [4],100
same,"Plant response rating (0 to 100), Kochia","kochia; Postemergence, 31 g ai/ha",0
same,"Plant response rating, Kochia","kochia; Postemergence, 62 g ai/ha",0
same,"Plant response rating, Kochia","kochia; Postemergence, 125 g ai/ha",10
same,"Plant response rating, Kochia","kochia; Postemergence, 250 g ai/ha",40
same,"Plant response rating (0 to 100), Kochia","kochia; Preemergence, 250 g ai/ha",100
same,Kochia plant response rating,kochia; [5],100
same,"Bromegrass, Downy plant response rating",downy brome; [3],0
same,"Bromegrass, Downy plant response rating",downy brome; [4],50
same,"Plant response rating (0 to 100), Bromegrass, Downy","downy brome; Postemergence, 31 g ai/ha",0
same,"Plant response rating, Bromegrass, Downy","downy brome; Postemergence, 62 g ai/ha",0
same,"Plant response rating, Bromegrass, Downy","downy brome; Postemergence, 125 g ai/ha",0
same,"Plant response rating, Bromegrass, Downy","downy brome; Postemergence, 250 g ai/ha",0
same,"Plant response rating (0 to 100), Bromegrass, Downy","downy brome; Preemergence, 250 g ai/ha",100
same,"Bromegrass, Downy plant response rating",downy brome; [5],100
same,"Plant response rating, Rice","rice; 31 g ai/ha, scale 0 to 100 (0 no effect, 100 complete control)",0
same,"Plant response rating, Rice","rice; 62 g ai/ha, scale 0 to 100, 0 no effect, 100 complete control, 13 to 15 days",0
same,"Plant response rating, Rice","rice; 125 g ai/ha, scale 0 to 100, 0 no effect, 100 complete control, 13 to 15 days",80
same,"Plant response rating, Rice","rice; 250 g ai/ha, scale 0 to 100 (0 no effect, 100 complete control)",80
same,Nightshade plant response rating,eastern black nightshade; [3],70
same,Nightshade plant response rating,eastern black nightshade; [4],100
same,"Plant response rating (0 to 100), Nightshade","eastern black nightshade; Preemergence, 250 g ai/ha",100
same,Nightshade plant response rating,eastern black nightshade; [5],100
same,Johnsongrass plant response rating,johnsongrass; [3],80
same,Johnsongrass plant response rating,johnsongrass; [4],90
same,"Plant response rating (0 to 100), Johnsongrass","johnsongrass; Postemergence, 31 g ai/ha",0
same,"Plant response rating, Johnsongrass","johnsongrass; Postemergence, 62 g ai/ha",0
same,"Plant response rating, Johnsongrass","johnsongrass; Postemergence, 125 g ai/ha",0
same,"Plant response rating, Johnsongrass","johnsongrass; Postemergence, 250 g ai/ha",10
same,"Plant response rating (0 to 100), Johnsongrass","johnsongrass; Preemergence, 250 g ai/ha",100
same,Johnsongrass plant response rating,johnsongrass; [5],100
same,"Crabgrass, Large plant response rating",crabgrass; [3],0
same,"Crabgrass, Large plant response rating",crabgrass; [4],80
same,"Plant response rating (0 to 100), Crabgrass, Large","crabgrass; Postemergence, 31 g ai/ha",10
same,"Plant response rating, Crabgrass, Large","crabgrass; Postemergence, 62 g ai/ha",30
same,"Plant response rating, Crabgrass, Large","crabgrass; Postemergence, 125 g ai/ha",50
same,"Plant response rating, Crabgrass, Large","crabgrass; Postemergence, 250 g ai/ha",70
same,"Plant response rating (0 to 100), Crabgrass, Large","crabgrass; Preemergence, 250 g ai/ha",100
same,"Crabgrass, Large plant response rating",crabgrass; [5],100
same,"Oat, Wild plant response rating",wild oat; [3],50
same,"Oat, Wild plant response rating",wild oat; [4],85
same,"Plant response rating (0 to 100), Oat, Wild","wild oat; Postemergence, 31 g ai/ha",0
same,"Plant response rating, Oat, Wild","wild oat; Postemergence, 62 g ai/ha",0
same,"Plant response rating, Oat, Wild","wild oat; Postemergence, 125 g ai/ha",0
same,"Plant response rating, Oat, Wild","wild oat; Postemergence, 250 g ai/ha",0
same,"Plant response rating (0 to 100), Oat, Wild","wild oat; Preemergence, 250 g ai/ha",100
same,"Oat, Wild plant response rating",wild oat; [5],95
